Values after ≈ are worked out from the molar mass of the structure shown. Where a SMILES comes first, the peptide text is derived from it. Bridges are numbered along the chain shown (N, C = ends). Roman numbers before positions name the chains, in order. [ ]: non-standard residue; d: D form. Tle = CC(C)(C)[C@H](N)C(=O)O; Hiv = CC(C)[C@H](O)C(=O)O; dDab = NCC[C@@H](N)C(=O)O; hSer = N[C@@H](CCO)C(=O)O; Dab = NCC[C@H](N)C(=O)O; Dap = NC[C@H](N)C(=O)O
Key:
Type in all cases: cell-based
[1] = tested on: Acinetobacter baumannii DSM 30008; details: DSM 30008
Method in brief: (§1)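 Peptides are tested in serial two-fold dilutions against about 10^6 CFU/mL in MH-II broth containing 0.002% P-80 (v/v, final). Plates incubate 18-20 h at 35° C, and the MIC is the lowest peptide level (μg/mL) showing no visible growth.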

[2] = tested on: Enterobacter cloacae 848840; details: 848840
Method in brief: as §1

[3] = tested on: Acinetobacter baumannii 872842; details: 872842
Method in brief: as §1

[4] = tested on: Escherichia coli ATCC 25922; details: ATCC 25922
Method in brief: as §1

[5] = tested on: Pseudomonas aeruginosa ATCC 27853; details: ATCC 27853
Method in brief: as §1

[6] = tested on: Klebsiella pneumoniae 968733; details: 968733
Method in brief: as §1

[7] = tested on: Klebsiella pneumoniae SSI #3010; details: SSI #3010
Method in brief: as §1

Escherichia coli 926415 = details: 926415
Method in brief: as §1

[8] = tested on: human red blood cells (hRBC); experiment: Hemolysis; details: red cells of human, 1 h, 200
Method in brief: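 hRBC washed 4× in PBS; 200 μg/mL peptide + 20% (v/v) hRBC, 1 h, 37° C, 300 rpm. Spin, supernatant ~7.5-fold diluted, OD540 blank corrected. % hemolysis = OD540 peptide / OD540 Triton X-100 × 100.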

SMILES	MIC [1]	MIC [2]	MIC [3]	MIC [4]	MIC [5]	MIC [6]	MIC [7]	MIC (Escherichia coli 926415)	Hemolysis at 200 μg/mL [8]	Acinetobacter baumannii DSM 30008 MIC [1]	Escherichia coli ATCC 25922 MIC [4]	Pseudomonas aeruginosa ATCC 27853 MIC [5]	Klebsiella pneumoniae SSI #3010 MIC [7]
CC(C)C[C@@H]1NC(=O)[C@@H](CC(C)C)NC(=O)[C@H](CCN)NC(=O)[C@@H](NC(=O)[C@H](CCN)NC(=O)[C@@H](NC(=O)[C@H](CCN)NC(=O)CC[C@@H]2NC(=O)[C@H](CCN)NC(=O)[C@H](Cc3ccc(O)cc3)NC(=O)[C@@H](NC(=O)[C@@H](NC(=O)[C@H](N)CO)C(C)C)CSSC[C@@H](C(=O)N[C@@H](CO)C(=O)N[C@H](C)C(=O)O)NC(=O)[C@H](C(C)(C)C)NC(=O)[C@H](CO)NC(=O)[C@H](Cc3c[nH]c4ccccc34)NC(=O)[C@H]([C@@H](C)O)NC(=O)[C@@H](CCN)NC2=O)[C@@H](C)O)CCNC(=O)[C@H]([C@@H](C)O)NC(=O)[C@H](CCN)NC(=O)[C@H](CCN)NC1=O [Ex. 241] (I: H-[dS]VCY[Dab]E[dDab]TWS[Tle]CS[dA]-OH / II: [Dab]T[Dab][Dab][Dab][dL]L[Dab][Dab]T; disulfide I:3-I:12; amide I:6-II:N; lactam II:4-II:C)	0.125 µg/mL (≈ 0.0489 µM)	2 µg/mL (≈ 0.782 µM)	0.125 µg/mL (≈ 0.0489 µM)	0.125 µg/mL (≈ 0.0489 µM)	0.25 µg/mL (≈ 0.0977 µM)	1 µg/mL (≈ 0.391 µM)	0.125 µg/mL (≈ 0.0489 µM)	1 µg/mL (≈ 0.391 µM)	<1%				
CC(C)C[C@@H]1NC(=O)[C@@H](CC(C)C)NC(=O)[C@H](CCN)NC(=O)[C@@H](NC(=O)[C@H](CN)NC(=O)[C@@H](NC(=O)[C@H](CCN)NC(=O)CC[C@@H]2NC(=O)[C@H](CO)NC(=O)[C@H](Cc3ccc(O)cc3)NC(=O)[C@@H](NC(=O)[C@@H](O)C(C)C)CSSC[C@@H](C(=O)N[C@@H](CO)C(=O)N[C@@H](CC(=O)O)C(N)=O)NC(=O)[C@H](C(C)(C)C)NC(=O)[C@H](CO)NC(=O)[C@H](Cc3c[nH]c4ccccc34)NC(=O)[C@H](CCN)NC(=O)[C@@H](CCN)NC2=O)[C@@H](C)O)CCNC(=O)[C@H]([C@@H](C)O)NC(=O)[C@H](CCN)NC(=O)[C@H](CCN)NC1=O [Ex. 372] (I: H-[Hiv]CYSE[dDab][Dab]WS[Tle]CSD-NH2 / II: [Dab]T[Dap][Dab][Dab][dL]L[Dab][Dab]T; disulfide I:2-I:11; amide I:5-II:N; lactam II:4-II:C)		0.25 µg/mL (≈ 0.101 µM)	0.125 µg/mL (≈ 0.0503 µM)			0.25 µg/mL (≈ 0.101 µM)		0.125 µg/mL (≈ 0.0503 µM)	<1%	0.03125 µg/mL	0.0625 µg/mL	0.0625 µg/mL	0.0625 µg/mL
CC(C)C[C@@H]1NC(=O)[C@@H](CC(C)C)NC(=O)[C@H](CCN)NC(=O)[C@@H](NC(=O)[C@H](CCN)NC(=O)[C@@H](NC(=O)[C@H](CCN)NC(=O)CC[C@@H]2NC(=O)[C@@H](NC(=O)[C@H](Cc3ccc(O)cc3)NC(=O)[C@@H](NC(=O)[C@@H](N)C(C)C)[C@@H](C)O)CSSC[C@@H](C(=O)N[C@H](C(=O)N[C@@H](C)C(=O)N[C@@H](CO)C(N)=O)C(C)(C)C)NC(=O)[C@H](Cc3c[nH]c4ccccc34)NC(=O)[C@H]([C@@H](C)O)NC(=O)[C@@H](CCN)NC2=O)[C@@H](C)O)CCNC(=O)[C@H]([C@@H](C)O)NC(=O)[C@H](CCN)NC(=O)[C@H](CCN)NC1=O [Ex. 182] (I: H-VTYCE[dDab]TWC[Tle]AS-NH2 / II: [Dab]T[Dab][Dab][Dab][dL]L[Dab][Dab]T; disulfide I:4-I:9; amide I:5-II:N; lactam II:4-II:C)	0.0625 µg/mL (≈ 0.0262 µM)	0.125 µg/mL (≈ 0.0524 µM)	0.125 µg/mL (≈ 0.0524 µM)	0.03125 µg/mL (≈ 0.0131 µM)	0.125 µg/mL (≈ 0.0524 µM)	1 µg/mL (≈ 0.419 µM)	0.125 µg/mL (≈ 0.0524 µM)	0.5 µg/mL (≈ 0.21 µM)	<1%				
CC(C)C[C@@H]1NC(=O)[C@@H](CC(C)C)NC(=O)[C@H](CCN)NC(=O)[C@@H](NC(=O)[C@H](CN)NC(=O)[C@@H](NC(=O)[C@H](CCN)NC(=O)CC[C@@H]2NC(=O)[C@@H](CCN)NC(=O)CNC(=O)[C@H](CCN)NC(=O)[C@H](Cc3ccc(O)cc3)NC(=O)[C@@H](NC(=O)[C@@H](O)C(C)C)CSSC[C@@H](C(=O)N[C@H](C(N)=O)[C@@H](C)O)NC(=O)[C@H](C(C)(C)C)NC(=O)[C@H](CO)NC(=O)[C@H](Cc3c[nH]c4ccccc34)NC2=O)[C@@H](C)O)CCNC(=O)[C@H]([C@@H](C)O)NC(=O)[C@H](CCN)NC(=O)[C@H](CCN)NC1=O [Ex. 168] (I: H-[Hiv]CY[Dab]G[dDab]EWS[Tle]CT-NH2 / II: [Dab]T[Dap][Dab][Dab][dL]L[Dab][Dab]T; disulfide I:2-I:11; amide I:7-II:N; lactam II:4-II:C)	0.125 µg/mL (≈ 0.0531 µM)	0.25 µg/mL (≈ 0.106 µM)	0.125 µg/mL (≈ 0.0531 µM)	0.0625 µg/mL (≈ 0.0265 µM)	0.25 µg/mL (≈ 0.106 µM)	0.5 µg/mL (≈ 0.212 µM)	0.125 µg/mL (≈ 0.0531 µM)	0.125 µg/mL (≈ 0.0531 µM)	<1%				
CC(=O)N[C@H](C(=O)N[C@@H](CN)C(=O)N[C@@H](Cc1ccc(O)cc1)C(=O)N[C@H]1CSSC[C@@H](C(=O)N[C@H](C(=O)N[C@@H](C)C(=O)N[C@@H](CO)C(N)=O)C(C)(C)C)NC(=O)[C@H](Cc2c[nH]c3ccccc23)NC(=O)[C@H]([C@@H](C)O)NC(=O)[C@@H](CCN)NC(=O)[C@H](CCC(=O)N[C@@H](CCN)C(=O)N[C@H](C(=O)N[C@@H](CCN)C(=O)N[C@H]2CCNC(=O)[C@H]([C@@H](C)O)NC(=O)[C@H](CCN)NC(=O)[C@H](CCN)NC(=O)[C@H](CC(C)C)NC(=O)[C@@H](CC(C)C)NC(=O)[C@H](CCN)NC2=O)[C@@H](C)O)NC1=O)C(C)C [Ex. 179] (I: Ac-V[Dap]YCE[dDab]TWC[Tle]AS-NH2 / II: [Dab]T[Dab][Dab][Dab][dL]L[Dab][Dab]T; disulfide I:4-I:9; amide I:5-II:N; lactam II:4-II:C)	0.0625 µg/mL (≈ 0.0259 µM)	0.5 µg/mL (≈ 0.207 µM)	0.25 µg/mL (≈ 0.104 µM)	0.125 µg/mL (≈ 0.0518 µM)	0.25 µg/mL (≈ 0.104 µM)	4 µg/mL (≈ 1.66 µM)	0.25 µg/mL (≈ 0.104 µM)	0.5 µg/mL (≈ 0.207 µM)	<1%				
CC(=O)N[C@H](C(=O)N[C@H]1CSSC[C@@H](C(=O)N[C@@H](CO)C(N)=O)NC(=O)[C@H](C(C)(C)C)NC(=O)[C@H](CCC(=O)O)NC(=O)[C@H](Cc2c[nH]c3ccccc23)NC(=O)[C@H](CCO)NC(=O)[C@@H](CCN)NC(=O)[C@H](CCC(=O)N[C@@H](CCN)C(=O)N[C@H](C(=O)N[C@@H](CN)C(=O)N[C@H]2CCNC(=O)[C@H]([C@@H](C)O)NC(=O)[C@H](CCN)NC(=O)[C@H](CCN)NC(=O)[C@H](CC(C)C)NC(=O)[C@@H](CC(C)C)NC(=O)[C@H](CCN)NC2=O)[C@@H](C)O)NC(=O)[C@H](CCN)NC(=O)[C@H](Cc2ccc(O)cc2)NC1=O)C(C)C [Ex. 156] (I: Ac-VCY[Dab]E[dDab][hSer]WE[Tle]CS-NH2 / II: [Dab]T[Dap][Dab][Dab][dL]L[Dab][Dab]T; disulfide I:2-I:11; amide I:5-II:N; lactam II:4-II:C)	0.0625 µg/mL (≈ 0.0253 µM)	0.125 µg/mL (≈ 0.0506 µM)	0.125 µg/mL (≈ 0.0506 µM)	0.03125 µg/mL (≈ 0.0127 µM)	0.125 µg/mL (≈ 0.0506 µM)	0.25 µg/mL (≈ 0.101 µM)	0.125 µg/mL (≈ 0.0506 µM)	0.125 µg/mL (≈ 0.0506 µM)	<1%				
CC(=O)N[C@H]1CSSC[C@@H](C(N)=O)NC(=O)[C@H](CO)NC(=O)[C@H](C)NC(=O)[C@H](C(C)(C)C)NC(=O)[C@H](CO)NC(=O)[C@H](Cc2c[nH]c3ccccc23)NC(=O)[C@H](CO)NC(=O)[C@@H](CCN)NC(=O)[C@H](CCC(=O)N[C@@H](CCN)C(=O)N[C@H](C(=O)N[C@@H](CN)C(=O)N[C@H]2CCNC(=O)[C@H]([C@@H](C)O)NC(=O)[C@H](CCN)NC(=O)[C@H](CCN)NC(=O)[C@H](CC(C)C)NC(=O)[C@@H](CC(C)C)NC(=O)[C@H](CCN)NC2=O)[C@@H](C)O)NC(=O)[C@H](CN)NC(=O)[C@H](Cc2ccc(O)cc2)NC(=O)[C@H]([C@@H](C)O)NC(=O)[C@H](C(C)C)NC1=O [Ex. 244] (I: Ac-CVTY[Dap]E[dDab]SWS[Tle]ASC-NH2 / II: [Dab]T[Dap][Dab][Dab][dL]L[Dab][Dab]T; disulfide I:1-I:14; amide I:6-II:N; lactam II:4-II:C)	0.03125 µg/mL (≈ 0.0122 µM)	0.0625 µg/mL (≈ 0.0243 µM)	0.0625 µg/mL (≈ 0.0243 µM)	0.03125 µg/mL (≈ 0.0122 µM)	0.25 µg/mL (≈ 0.0972 µM)	0.0625 µg/mL (≈ 0.0243 µM)	0.0625 µg/mL (≈ 0.0243 µM)	0.125 µg/mL (≈ 0.0486 µM)	1%				

Source: patent publication US11629171B2, “Beta-hairpin peptidomimetics” (POLYPHOR AG, priority 2017, dated 2023)
